Tests used:
[1] = test system: MV-4-11 human acute myeloid leukemia cell line; assay: Cell viability assay in MV-4-11 cells (Cell Titer-Glo); type: cell-based; settings: MV4-11, 72 hrs incubation
Procedure: The effects of test compounds were studied in a cell viability assay in the MV-4-11 human acute myeloid leukemia cell line. The cells were harvested during the logarithmic growth period and counted. Cells were seeded at a count of 15000 cells per well/100 μl. After seeding, cells were incubated at 37° C. 5% CO2 for 1 hr. Cells were treated with test compounds at 8 concentrations within a desired concentration range (e.g. 5 nM-10 μM) for generation of dose response curves by preparing serial dilutions of the test compound in DMSO which were further diluted with culture medium and then added to each well. The plate was further incubated for another 72 hrs in a humidified incubator at 37° C. and 5% CO2. The assay was terminated by addition of Cell Titer-Glo reagent (Promega, Madison, Wis.) at ¼ the volume of total medium per well. Contents were mixed, the plate was incubated for 10 min at room temperature and luminescence was measured. Cell viability data were plotted using GraphPad Prism (GraphPad Software, Inc., San Diego, Calif.). In addition, a nonlinear regression model with a sigmoidal dose response and variable slope within GraphPad Prism was used to calculate the IC50 value of individual test compounds.

BRD4-1 = BRD4-1 (Homo sapiens (Human), UniProt O60885); assay: Bromodomain and Extraterminal Domain (BET) binding assay, BRD4-1; settings: histone H4 peptide (1-21) K5/8/12/16Ac-biotin ligand; 20 nM protein, 20 nM ligand
Procedure: (§1) The bromodomain binding assays were performed by Reaction Biology Corp., Malvern, Pa., USA (www.reactionbiology.com). The BET binding assays were conducted in 384 well microplates in assay buffer (50 mM HEPES-HCl, pH 7.5, 100 mM NaCl, 1 mg/ml BSA, 0.05% CHAPS, and 0.5% DMSO) with compounds added as DMSO stocks at a single concentration or with 10-point dose response titrations. BET protein or assay buffer were delivered to the appropriate wells of the microplate. Test compound was then delivered by acoustic technology via a Labcyte Echo550 liquid handler. The microplate was centrifuged for 5 min and pre-incubated for 30 min at RT with gentle shaking. The ligand (histone H4 peptide (1-21) K5/8/12/16Ac-biotin) was delivered and the microplate was again centrifuged for 5 min and allowed to incubate for 30 min at RT with gentle shaking. Donor beads were then added in the absence of light and the microplate was centrifuged and gently shaken. After 5 min, acceptor beads were added in the absence of light and the microplate was centrifuged and gently shaken in the dark for 60 min. The microplate was read using a Perkin Elmer EnSpire Alpha plate reader (λ Ex/λ Em=680/520-620 nm). Percent inhibition was calculated relative to positive and negative controls on a per plate basis. For titration experiments, IC50 values were determined by fitting the percent inhibition versus compound concentration.

BRD4-2 = BRD4-2 (Homo sapiens (Human), UniProt O60885); assay: Bromodomain and Extraterminal Domain (BET) binding assay, BRD4-2; settings: histone H4 peptide (1-21) K5/8/12/16Ac-biotin ligand; 130 nM protein, 70 nM ligand
Procedure: as §1

Row | SMILES | IC50 [1] | IC50 (BRD4-1) | IC50 (BRD4-2)
1 | Cc1cc(F)cc(C)c1Oc1ccc(C(C)(C)O)cc1-c1cn(C)c(=O)c2ccsc12 [Compound 2.1, 7-(2-(4-fluoro-2,6-dimethylphenoxy)-5-(2-hydroxypropan-2-yl)phenyl)-5-methylthieno[3,2-c]pyridin-4(5H)-one] | 0.47 µM | 2500 nM | 19.8 nM
2 | Cn1cc(-c2cc(C(C)(C)O)ccc2Oc2ccc(F)cc2F)c2sccc2c1=O [Compound 2.3, 7-(2-(2,4-difluorophenoxy)-5-(2-hydroxypropan-2-yl)phenyl)-5-methylthieno[3,2-c]pyridin-4(5H)-one] | 0.163 µM | 118 nM | 28.5 nM
3 | CCS(=O)(=O)Nc1ccc(Oc2ccc(F)cc2F)c(-c2cn(C)c(=O)c3ccsc23)c1 [Compound 2.91, N-(4-(2,4-difluorophenoxy)-3-(5-methyl-4-oxo-4,5-dihydrothieno [3,2-c]pyridin-7-yl)phenyl)ethanesulfonamide] |  | 15 nM | 7.3 nM
4 | Cn1cc(-c2cc(C(C)(C)O)ccc2Oc2ccc(F)cc2F)c2cc(C(=O)NCC(F)(F)F)sc2c1=O [Compound 5, 4-(2-(2,4-difluorophenoxy)-5-(2-hydroxypropan-2-yl)phenyl)-6-methyl-7-oxo-N-(2,2,2-trifluoroethyl)-6,7-dihydrothieno[2,3-c]pyridine-2-carboxamide] | 0.597 µM | 744 nM | 18 nM
5 | Cn1cc(-c2cc(C(C)(C)O)ccc2Oc2ccc(F)cc2F)c2cc(C(=O)N3CCCCC3)sc2c1=O [Compound 6, 4-(2-(2,4-difluorophenoxy)-5-(2-hydroxypropan-2-yl)phenyl)-6-methyl-2-(piperidine-1-carbonyl)thieno[2,3-c]pyridin-7(6H)-one] | 1.79 µM | 1480 nM | 32 nM
6 | Cn1cc(-c2cc(C(C)(C)O)ccc2Oc2ccc(F)cc2F)c2cc(CN3CCCCC3)sc2c1=O [Compound 7, 4-(2-(2,4-difluorophenoxy)-5-(2-hydroxypropan-2-yl)phenyl)-6-methyl-2-(piperidin-1-ylmethyl)thieno[2,3-c]pyridin-7(6H)-one] | 2.48 µM |  | 497 nM
7 | Cc1nnc(-c2cc3c(-c4cc(C(C)(C)O)ccc4Oc4ccc(F)cc4F)cn(C)c(=O)c3s2)o1 [Compound 12, 4-(2-(2,4-difluorophenoxy)-5-(2-hydroxypropan-2-yl)phenyl)-6-methyl-2-(5-methyl-1,3,4-oxadiazol-2-yl)thieno[2,3-c]pyridin-7(6H)-one] | 0.074 µM | 17 nM | 12.5 nM
8 | Cn1cc(-c2cc(C(C)(C)O)ccc2Oc2ccc(F)cc2F)c2cc(C(=O)NC3(C(F)(F)F)CC3)sc2c1=O [Compound 14, 4-(2-(2,4-difluorophenoxy)-5-(2-hydroxypropan-2-yl)phenyl)-6-methyl-7-oxo-N-(1-(trifluoromethyl)cyclopropyl)-6,7-dihydrothieno[2,3-c]pyridine-2-carboxamide] | 0.768 µM | 1170 nM | 47 nM
9 | Cn1cc(-c2cc(C(C)(C)O)ccc2Oc2ccc(F)cc2F)c2cc(C(=O)N3CCC(F)(F)CC3)sc2c1=O [Compound 22, 4-(2-(2,4-difluorophenoxy)-5-(2-hydroxypropan-2-yl)phenyl)-2-(4,4-difluoropiperidine-1-carbonyl)-6-methylthieno[2,3-c]pyridin-7(6H)-one] | 1.41 µM | 638 nM | 11 nM
10 | Cn1cc(-c2cc(C(C)(C)O)ccc2Oc2ccc(F)cc2F)c2cc(C(=O)N3CCC(F)(F)C3)sc2c1=O [Compound 76, 4-(2-(2,4-difluorophenoxy)-5-(2-hydroxypropan-2-yl)phenyl)-2-(3,3-difluoropyrrolidin-1-carbonyl)-6-methylthieno[2,3-c]pyridin-7(6H)-one] | 0.879 µM | 265 nM | 17 nM
11 | C=C(C)c1ccc(Oc2c(C)cc(F)cc2C)c(-c2cn(C)c(=O)c3sc(C(=O)NCC)cc23)c1 [Compound 148, N-ethyl-4-(2-(4-fluoro-2,6-dimethylphenoxy)-5-(prop-1-en-2-yl)phenyl)-6-methyl-7-oxo-6,7-dihydrothieno[2,3-c]pyridine-2-carboxamide] | 1.28 µM | > 10000 nM | 103 nM
12 | Cc1cc(F)cc(C)c1Oc1ccc(C(C)(C)O)cc1-c1cn(C)c(=O)c2sc(C(=O)NCc3ccccc3)cc12 [Compound 149, N-benzyl-4-(2-(4-fluoro-2,6-dimethylphenoxy)-5-(2-hydroxypropan-2-yl)phenyl)-6-methyl-7-oxo-6,7-dihydrothieno[2,3-c]pyridine-2-carboxamide] | 1.5 µM | > 10000 nM | 103 nM
13 | CNC(=O)c1cc2c(-c3cc(C(C)(C)O)ccc3Oc3c(C)cc(F)cc3C)cn(C)c(=O)c2s1 [Compound 150, 4-(2-(4-fluoro-2,6-dimethylphenoxy)-5-(2-hydroxypropan-2-yl)phenyl)-N,6-dimethyl-7-oxo-6,7-dihydrothieno[2,3-c]pyridine-2-carboxamide] | 0.193 µM | 3600 nM | 1.2 nM
14 | Cc1cc(F)cc(C)c1Oc1ccc(C(C)(C)O)cc1-c1cn(C)c(=O)c2sc(C(=O)Nc3ccccc3)cc12 [Compound 151, 4-(2-(4-fluoro-2,6-dimethylphenoxy)-5-(2-hydroxypropan-2-yl)phenyl)-6-methyl-7-oxo-N-phenyl-6,7-dihydrothieno[2,3-c]pyridine-2-carboxamide] | 0.282 µM | 9380 nM | 3.2 nM
15 | Cc1nnc(-c2cc3c(-c4cc(C(C)(C)O)ccc4Oc4c(C)cc(F)cc4C)cn(C)c(=O)c3s2)[nH]1 [Compound 152, 4-(2-(4-fluoro-2,6-dimethylphenoxy)-5-(2-hydroxypropan-2-yl)phenyl)-6-methyl-2-(5-methyl-4H-1,2,4-triazol-3-yl)thieno[2,3-c]pyridin-7(6H)-one] | 0.536 µM | 1490 nM | 9 nM
16 | Cc1cc(F)cc(C)c1Oc1ccc(C(C)(C)O)cc1-c1cn(C)c(=O)c2sc(-c3nc4ccccc4o3)cc12 [Compound 153, 2-(benzo[d]oxazol-2-yl)-4-(2-(4-fluoro-2,6-dimethylphenoxy)-5-(2-hydroxypropan-2-yl)phenyl)-6-methylthieno[2,3-c]pyridin-7(6H)-one] | 3.83 µM | > 10000 nM | 526 nM
17 | Cc1cc(F)cc(C)c1Oc1ccc(C(C)(C)O)cc1-c1cn(C)c(=O)c2sc(-c3nc4ccccc4[nH]3)cc12 [Compound 154, 2-(1H-benzo[d]imidazol-2-yl)-4-(2-(4-fluoro-2,6-dimethylphenoxy)-5-(2-hydroxypropan-2-yl)phenyl)-6-methylthieno[2,3-c]pyridin-7(6H)-one] | 2.89 µM | > 10000 nM | 284 nM
18 | CCN(CC)C(=O)c1cc2c(-c3cc(C(C)(C)O)ccc3Oc3c(C)cc(F)cc3C)cn(C)c(=O)c2s1 [Compound 155, N,N-diethyl-4-(2-(4-fluoro-2,6-dimethylphenoxy)-5-(2-hydroxypropan-2-yl)phenyl)-6-methyl-7-oxo-6,7-dihydrothieno[2,3-c]pyridine-2-carboxamide] |  | > 10000 nM | 4070 nM
19 | C=C(C)c1ccc(Oc2c(C)cc(F)cc2C)c(-c2cn(C)c(=O)c3cc(C(=O)NCC)sc23)c1 [Compound 156, N-ethyl-7-(2-(4-fluoro-2,6-dimethylphenoxy)-5-(prop-1-en-2-yl)phenyl)-5-methyl-4-oxo-4,5-dihydrothieno[3,2-c]pyridine-2-carboxamide] |  | > 10000 nM | 740 nM
20 | CCS(=O)(=O)Nc1ccc(Oc2c(C)cc(F)cc2C)c(-c2cn(C)c(=O)c3sc(-c4nc5ccccc5[nH]4)cc23)c1 [Compound 157, N-(3-(2-(1H-benzo[d]imidazol-2-yl)-6-methyl-7-oxo-6,7-dihydrothieno[2,3-c]pyridin-4-yl)-4-(4-fluoro-2,6-dimethylphenoxy)phenyl)ethane sulfonamide] | 0.55 µM | > 10000 nM | 145 nM
21 | CCNC(=O)c1cc2c(=O)n(C)cc(-c3cc(C(C)(C)O)ccc3Oc3ccc(F)cc3F)c2s1 [Compound 159, 7-(2-(2,4-difluorophenoxy)-5-(2-hydroxypropan-2-yl)phenyl)-N-ethyl-5-methyl-4-oxo-4,5-dihydrothieno[3,2-c]pyridine-2-carboxamide] |  | 18 nM | 1.7 nM

— patent US11584756B2, “Heterocyclic compounds as BET inhibitors” (NUVATION BIO INC., priority 2019, dated 2023)
